According to ChEMBL document CHEMBL1151578, “Benzopyran-4-carboxamide K+ channel openers” (Bioorg Med Chem Lett, 1993):

How the values were obtained:
Rattus norvegicus [1] = organism: Rattus norvegicus; test: Relaxation of rat aorta smooth muscle precontracted with 30 mM KCl (Negative logarithm of molar concentration required); format: functional, organism-based; details: Muscle tissue
Rattus norvegicus [2] = organism: Rattus norvegicus; test: Relaxation of rat aorta smooth muscle; format: functional, Muscle tissue

Compound | EC50 (Rattus norvegicus [1]) [nM] | Intrinsic activity (Rattus norvegicus [2]) [%]
CCCNC(=O)C1=CC(C)(C)Oc2ccc([N+](=O)[O-])cc21 | 5.75 | 74.1
CC(N/C(=N\C#N)Nc1ccncc1)C(C)(C)C (stereo unspecified) [PINACIDIL ANHYDROUS] | – | 91.9
C#CCNC(=O)C1=CC(C)(C)Oc2ccc([N+](=O)[O-])cc21 | 7.94 | 80.2
CC1(C)C=C(C(=O)NCCO)c2cc([N+](=O)[O-])ccc2O1 | 182 | 71.8
CC1(C)C=C(C(=O)NCCF)c2cc([N+](=O)[O-])ccc2O1 | 20.4 | 81.6
CNC(=O)C1=CC(C)(C)Oc2ccc([N+](=O)[O-])cc21 | – | 61
CC1(C)C=C(C(=O)NCCC#N)c2cc([N+](=O)[O-])ccc2O1 | – | 73.1
CC1(C)C=C(C(=O)NC2CC2)c2cc([N+](=O)[O-])ccc2O1 | 32.4 | 78
CC1(C)C=C(C(=O)NCC2CC2)c2cc([N+](=O)[O-])ccc2O1 | 6.61 | 89.3
CCNC(=O)C1=CC(C)(C)Oc2ccc([N+](=O)[O-])cc21 | 4.57 | 80.5
CC1(C)Oc2ccc(C#N)cc2[C@H](N2CCCC2=O)[C@H]1O (single isomer, unassigned) [(-)-CROMAKALIM] | 170 | 74.7
CC1(C)C=C(C(N)=O)c2cc([N+](=O)[O-])ccc2O1 | 363 | 79.8
CNC(=O)C1=CC(C)(C)Oc2ccc(C#N)cc21 | – | 66.6
CCCCNC(=O)C1=CC(C)(C)Oc2ccc([N+](=O)[O-])cc21 | 21.9 | 83.2
CC(C)NC(=O)C1=CC(C)(C)Oc2ccc([N+](=O)[O-])cc21 | 186 | 77.6
